Assay results as given in patent US20140190726A1, “MIXTURE OF DECAFLUORO-2-METHYLBUTAN-3-ONE AND A CARRIER GAS AS A MEDIUM FOR ELECTRICAL INSULATION AND/OR FOR ELECTRIC ARC EXTINCTION IN MEDIUM-VOLTAGE” (SCHNEIDER ELECTRIC INDUSTRIES SAS, priority 2011, published 2014).

Legend:
[1] = Saturation vapour pressure of C5K at minimum service temperatures; format: physicochemical; conditions: for PC5K pressure equivalent at 20° C. to the saturation vapour pressure: formula (II)
Method: Table I below indicates the saturation vapour pressures, noted PVSC5K, which C5K has at the temperatures of 0, −5, −10, −15, −20, −25, −30, −35 and −40° C., which are the minimum service temperatures typically found for medium- and high-voltage electrical devices.
It also indicates the pressure values, noted PC5K, which correspond at 20° C. to these saturation vapour pressures, and which are obtained by applying formula (II) above.

[2] = humans and animals; cited from earlier work

| Compound | PVSC5K saturation vapour pressure ([1]; 0° C.) [kPa] | PC5K pressure equivalent at 20° C. to the saturation vapour pressure ([1]; 0° C.) [kPa] | PVSC5K saturation vapour pressure ([1]; −5° C.) [kPa] | PC5K pressure equivalent at 20° C. to the saturation vapour pressure ([1]; −5° C.) [kPa] | PVSC5K saturation vapour pressure ([1]; −10° C.) [kPa] | PC5K pressure equivalent at 20° C. to the saturation vapour pressure ([1]; −10° C.) [kPa] | PVSC5K saturation vapour pressure ([1]; −15° C.) [kPa] | PC5K pressure equivalent at 20° C. to the saturation vapour pressure ([1]; −15° C.) [kPa] | PVSC5K saturation vapour pressure ([1]; −20° C.) [kPa] | PC5K pressure equivalent at 20° C. to the saturation vapour pressure ([1]; −20° C.) [kPa] | PVSC5K saturation vapour pressure ([1]; −25° C.) [kPa] | PC5K pressure equivalent at 20° C. to the saturation vapour pressure ([1]; −25° C.) [kPa] | PVSC5K saturation vapour pressure ([1]; −30° C.) [kPa] | PC5K pressure equivalent at 20° C. to the saturation vapour pressure ([1]; −30° C.) [kPa] | PVSC5K saturation vapour pressure ([1]; −35° C.) [kPa] | PC5K pressure equivalent at 20° C. to the saturation vapour pressure ([1]; −35° C.) [kPa] | PVSC5K saturation vapour pressure ([1]; −40° C.) [kPa] | PC5K pressure equivalent at 20° C. to the saturation vapour pressure ([1]; −40° C.) [kPa] | Toxicity [2] |
| --- | --- | --- | --- | --- | --- | --- | --- | --- | --- | --- | --- | --- | --- | --- | --- | --- | --- | --- | --- |
| O=C(C(F)(F)F)C(F)(C(F)(F)F)C(F)(F)F [C5K, decafluoro-2-methylbutan-3-one] | 41.3 | 44.3 | 33.6 | 36.7 | 27.1 | 30.2 | 21.7 | 24.7 | 17.3 | 20.0 | 13.6 | 16.0 | 10.6 | 12.7 | 8.1 | 10.0 | 6.2 | 7.8 | – |
| FS(F)(F)(F)(F)F [SF6, sulphur hexafluoride] | – | – | – | – | – | – | – | – | – | – | – | – | – | – | – | – | – | – | non-toxic for humans and animals |
